Reference: PubChem BioAssay (NCI)
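96-well plates; 48 h exposure; 5 concentrations. Endpoints by linear interpolation between flanking doses. Not reached: highest tested concentration assigned. GI50: concentration for 50% inhibition of growth. The concentration for full growth arrest is given as TGI.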

Columns and labels:
Assay in all cases: NCI-60 cell line screen, 48 h
[1] = system: HL-60(TB) leukemia
[2] = system: HT29 colon
[3] = system: IGROV1 ovarian
[4] = system: MCF7 breast
[5] = system: NCI-H226 lung
[6] = system: NCI-H23 lung
[7] = system: NCI/ADR-RES ovarian
[8] = system: OVCAR-4 ovarian
[9] = system: OVCAR-5 ovarian
[10] = system: SF-539 CNS

SMILES | TGI [1] [µM] | TGI [2] [µM] | TGI [3] [µM] | TGI [4] [µM] | TGI [5] [µM] | TGI [6] [µM] | TGI [7] [µM] | TGI [8] [µM] | TGI [9] [µM] | TGI [10] [µM] | GI50 [1] [µM] | GI50 [2] [µM] | GI50 [4] [µM] | GI50 [5] [µM] | GI50 [6] [µM] | GI50 [7] [µM] | GI50 [8] [µM] | GI50 [9] [µM] | GI50 [10] [µM] | GI50 [3] [µM]
COc1cc2c(cc1OC)C(C(c1ccccc1)c1ccccc1)N(C)CC2 (stereo not given) | > 100 | > 100 | > 100 | > 100 | > 100 | > 100 | > 100 | > 100 | > 100 | > 100 | – | – | – | – | – | – | – | – | – | –
O=C1CCC(c2ccccc2)=NN1c1nsc2ccccc12 | > 100 | > 100 | > 100 | – | – | > 100 | – | > 100 | > 100 | > 100 | – | – | – | – | – | – | – | – | – | –
COc1cnc2c(c1)C(=O)c1c-2n(CCCN2CCOCC2)c(=O)c2cc(Cl)ccc12 | > 100 | > 100 | – | > 100 | > 100 | > 100 | > 100 | > 100 | > 100 | 0.65 | 0.455 | 0.233 | 0.0959 | 0.396 | 0.308 | 0.259 | > 100 | > 100 | 0.23 | –
O=c1oc2cc(O)ccc2c(O)c1C(c1ccccc1)c1c(O)c2ccc(O)cc2oc1=O | > 100 | > 100 | > 100 | > 100 | > 100 | > 100 | > 100 | > 100 | > 100 | > 100 | – | – | – | – | – | – | – | – | – | –
C[n+]1c(/C=C/c2c(O)ccc3ccccc23)ccc2ccccc21 | 13.4 | 7.63 | 12.7 | 7.89 | 13.2 | 13.7 | 14.5 | 10.5 | 15.2 | 13.9 | 5.7 | 2.04 | 1.12 | 5.65 | 5.1 | 5.64 | 3.39 | 7.19 | 6.4 | 4.6
COc1cccc(N2C(Cl)C(=O)C2c2c[nH]c3ccccc23)c1 (stereo not given) | > 100 | > 100 | > 100 | – | – | > 100 | – | > 100 | > 100 | – | – | – | – | – | – | – | – | – | – | –
C[N+](C)([O-])CCOc1cc2c(c3ccccc13)-c1ccccc1C2=O | 35.5 | > 35.6 | 99.8 | > 100 | 78.8 | 74.7 | > 100 | 42.9 | 59.2 | 38.4 | – | – | – | – | – | – | – | – | – | –
O=C1CC2(CCC(O)(c3ccc4ccccc4c3)C(C(=O)c3ccc4ccccc4c3)C2)C(=O)c2ccccc2N1 (stereo not given) | > 100 | > 100 | > 100 | > 100 | > 100 | > 100 | > 100 | – | > 100 | > 100 | – | – | – | – | – | – | – | – | – | –
